The record followed here is US20260242356A1, “BICYCLIC HETEROCYCLIC AMIDE INHIBITORS OF NAv1.8 FOR THE TREATMENT OF PAIN” (priority 2022, published 2026).

In the first test the target is T1, human NaV sodium channel α-subunit NaV 1.8 (Homo sapiens, UniProt Q9Y5Y9).
T1 construct: transfected with the full-length cDNA coding for the appropriate human NaV sodium channel α-subunit NaV 1.8; expressed in transfected cells; host or cells: HEK293 cells
T1 sequence (Q9Y5Y9 whole entry): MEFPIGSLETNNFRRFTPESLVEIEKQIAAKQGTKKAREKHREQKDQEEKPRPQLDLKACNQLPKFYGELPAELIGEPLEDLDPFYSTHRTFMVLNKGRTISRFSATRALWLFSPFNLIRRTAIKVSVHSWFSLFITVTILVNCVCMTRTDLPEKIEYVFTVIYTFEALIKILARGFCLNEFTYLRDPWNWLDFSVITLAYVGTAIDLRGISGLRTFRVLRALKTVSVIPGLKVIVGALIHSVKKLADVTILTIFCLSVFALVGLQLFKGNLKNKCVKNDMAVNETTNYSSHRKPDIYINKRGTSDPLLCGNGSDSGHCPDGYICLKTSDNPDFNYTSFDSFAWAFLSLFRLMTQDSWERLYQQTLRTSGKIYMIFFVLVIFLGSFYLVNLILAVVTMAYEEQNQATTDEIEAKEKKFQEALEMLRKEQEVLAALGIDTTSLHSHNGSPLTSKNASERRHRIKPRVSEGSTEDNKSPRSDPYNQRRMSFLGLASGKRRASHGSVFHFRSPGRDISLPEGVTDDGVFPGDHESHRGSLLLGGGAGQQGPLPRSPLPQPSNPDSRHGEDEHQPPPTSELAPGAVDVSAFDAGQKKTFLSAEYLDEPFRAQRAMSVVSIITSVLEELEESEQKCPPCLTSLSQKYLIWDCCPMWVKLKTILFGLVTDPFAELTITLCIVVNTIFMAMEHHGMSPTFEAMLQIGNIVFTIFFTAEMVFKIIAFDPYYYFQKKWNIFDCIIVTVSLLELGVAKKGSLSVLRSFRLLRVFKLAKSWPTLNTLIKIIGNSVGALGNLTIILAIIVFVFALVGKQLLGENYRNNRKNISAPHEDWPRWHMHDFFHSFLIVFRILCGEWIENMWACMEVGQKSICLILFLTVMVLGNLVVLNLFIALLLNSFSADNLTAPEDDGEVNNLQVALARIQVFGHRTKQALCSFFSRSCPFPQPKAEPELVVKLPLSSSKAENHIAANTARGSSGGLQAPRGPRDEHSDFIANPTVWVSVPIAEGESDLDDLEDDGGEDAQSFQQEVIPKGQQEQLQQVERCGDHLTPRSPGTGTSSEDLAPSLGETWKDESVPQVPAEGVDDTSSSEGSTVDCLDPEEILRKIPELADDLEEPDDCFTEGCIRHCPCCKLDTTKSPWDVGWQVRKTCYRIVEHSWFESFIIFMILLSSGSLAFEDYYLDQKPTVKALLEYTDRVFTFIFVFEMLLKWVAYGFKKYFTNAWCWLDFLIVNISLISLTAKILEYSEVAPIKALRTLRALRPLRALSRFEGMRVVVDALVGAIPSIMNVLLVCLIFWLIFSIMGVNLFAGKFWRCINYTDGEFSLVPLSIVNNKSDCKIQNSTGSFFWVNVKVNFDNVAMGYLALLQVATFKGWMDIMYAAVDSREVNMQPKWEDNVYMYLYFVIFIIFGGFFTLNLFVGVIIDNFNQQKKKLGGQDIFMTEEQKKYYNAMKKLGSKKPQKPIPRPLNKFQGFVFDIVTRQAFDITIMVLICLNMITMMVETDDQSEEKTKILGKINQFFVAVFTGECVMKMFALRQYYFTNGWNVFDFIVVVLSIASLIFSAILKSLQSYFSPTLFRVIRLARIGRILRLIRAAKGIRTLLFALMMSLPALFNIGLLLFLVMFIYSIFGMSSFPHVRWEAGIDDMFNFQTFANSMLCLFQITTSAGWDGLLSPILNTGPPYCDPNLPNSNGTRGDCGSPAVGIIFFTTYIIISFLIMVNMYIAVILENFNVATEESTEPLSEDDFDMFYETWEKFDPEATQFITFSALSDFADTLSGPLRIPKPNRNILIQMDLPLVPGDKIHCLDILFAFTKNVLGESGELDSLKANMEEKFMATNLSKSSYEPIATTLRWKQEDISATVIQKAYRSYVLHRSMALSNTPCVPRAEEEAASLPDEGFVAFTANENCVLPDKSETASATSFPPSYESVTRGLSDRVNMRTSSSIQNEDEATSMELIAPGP
The experiment in a line: NaV inhibition assay, whole-cell patch-clamp (HEKA EPC 9 amplifier). It counts as cell-based.
Conditions: not given
As for the experimental part:
Electrophysiology experiments were performed on Human Embryonic Kidney 293 cells (HEK) or Chinese hamster ovary cells (CHO) transfected with the full-length cDNA coding for the appropriate human NaV sodium channel α-subunit NaV 1.8. Similarly, experiments are performed on Human Embryonic Kidney 293 cells (HEK) or Chinese hamster ovary cells (CHO) transfected with the full-length cDNA coding for the appropriate human NaV sodium channel α-subunit, including NaV 1.7, NaV 1.6, NaV 1.5, and NaV 1.4.
Sodium currents were measured using the patch-clamp technique in the whole-cell configuration with a HEKA EPC 9 amplifier (HEKA Elektronik Dr. Schulze GmbH, Germany) or can be measured using an IonFlux 16 automated patch clamp system (Fluxion Biosciences, South San Francisco, USA) as previously described by Moran. See, Moran O, Picollo A, Conti F (2003) Tonic and phasic guanidinium toxin-block of skeletal muscle Na channels expressed in Mammalian cells, Biophys J 84(5):2999-3006. For manual patch-clamp experiments, borosilicate glass micropipettes (Sutter Instruments, Novato, CA) were pulled to a tip diameter yielding a resistance of 1.0-2.0 MΩ in the working solutions. The composition of intracellular solution was (in mM): CsF 125, EGTA 10, HEPES 10, NaCl 10, and the pH was adjusted to 7.2 with CsOH. The composition of extracellular solution was (in mM): NaCl 135, KCl 4.5, CaCl2 2, MgCl2 1, HEPES 10, and the pH was adjusted to 7.4 with NaOH. For human NaV 1.8, 0.3-1 μM tetrodotoxin (TTX) was added to the extracellular solution to inhibit native TTX-sensitive current. Peak currents were generally between 0.5-20 nA.
Lyophilized stock of each test article was stored at −20° C., solubilized in DMSO (maximum final concentration 1%) and diluted to the desired concentration with the external solution prior to recording. Current measurements were recorded under continuous perfusion, controlled by syringe pump addition.
The output of the EPC 9 patch-clamp amplifier was filtered with a built-in low-pass, four-pole Bessel filter having a cutoff frequency of 10 kHz and sampled at 20-50 kHz. For both manual and automated recordings, the membrane was kept at a holding potential of between −120 and −80 mV. Pulse stimulation and data acquisition were controlled with the Pulse software (HEKA Elektronik Dr. Schulze GmbH, Germany) or the IonFlux software (Fluxion Biosciences, South San Francisco, USA). All measurements were performed at room temperature (about 20-22° C.). Recordings were made at least 5 min after establishing the whole-cell and voltage-clamp configuration to allow for stabilization of the voltage-dependent properties of the channels. Currents were elicited by 10-50 ms step depolarizations from a holding potential to a value between −40 and +10 mV. Peak currents after channel activation were recorded. […] Data were fit to a four-parameter logistic equation with the Hill slope set to 1 to determine IC50 values and expressed as mean.
For Table 1 and Table 2, all data were measured in HEK cells. Column 1 provides IC50 data for NaV 1.8 as measured using the patch-clamp technique in the whole-cell configuration with a HEKA EPC 9 amplifier, where +++ indicates an IC50 of less than or equal to 20 nM, ++ indicates an IC50 of greater than 20 nM but less that or equal to 100 nM, and + indicates an IC50 of greater than 100 nM but less that or equal to […]. ND means not detectable. NT means not tested.
Take `NS(=O)(=O)c1cccc(NC(=O)c2cc3cc(C(F)(F)F)ccc3nc2N2CCCC(F)(F)CC2)c1` [Compound 17]: the IC50 was under 20 nM. Molecule `NS(=O)(=O)c1cccc(NC(=O)c2cc3ccc(F)cc3nc2N2CCCC(F)(F)CC2)c1` [Compound 28, 2-(4,4-difluoroazepan-1-yl)-7-fluoro-N-(3-sulfamoylphenyl)quinoline-3-carboxamide] returned an IC50 of under 20 nM. Still for that read-out and setting: under `NS(=O)(=O)c1cccc(NC(=O)c2cc3cc(F)c(F)cc3nc2N2CCCC(F)(F)CC2)c1` [Compound 10, 2-(4,4-difluoroazepan-1-yl)-6,7-difluoro-N-(3-sulfamoylphenyl)quinoline-3-carboxamide] stands 20 to 100 nM. `CS(=N)(=O)c1cccc(NC(=O)c2cc3ccccc3nc2N2CCCC(F)(F)CC2)c1` (stereo not drawn) [Compound 1, 2-(4,4-difluoroazepan-1-yl)-N-(3-(S-methylsulfonimidoyl)phenyl)quinoline-3-carboxamide] had an IC50 of under 20 nM. The molecule `NS(=O)(=O)c1cccc(NC(=O)c2cc3ccc(Cl)cc3nc2N2CCCC(F)(F)CC2)c1` [Compound 13, 7-chloro-2-(4,4-difluoroazepan-1-yl)-N-(3-sulfamoylphenyl)quinoline-3-carboxamide] yielded an IC50 of 20 to 100 nM. Molecule `NC(=O)c1cccc(NC(=O)c2cc3ccccc3nc2N2CCCC(F)(F)CC2)c1` [Compound 4, N-(3-carbamoylphenyl)-2-(4,4-difluoroazepan-1-yl)quinoline-3-carboxamide] yielded an IC50 of under 20 nM. `COc1ccc2nc(N3CCCC(F)(F)CC3)c(C(=O)Nc3cccc(S(N)(=O)=O)c3)cc2c1` [Compound 11, 2-(4,4-difluoroazepan-1-yl)-6-methoxy-N-(3-sulfamoylphenyl)quinoline-3-carboxamide] came in with a concentration for half-maximal inhibition (IC50) of under 20 nM. In turn, `NS(=O)(=O)c1cccc(NC(=O)c2cc3ccccc3nc2N2CCCC(F)(F)CC2)c1` [Compound 2, 2-(4,4-difluoroazepan-1-yl)-N-(3-sulfamoylphenyl)quinoline-3-carboxamide] showed an IC50 of under 20 nM. `Nc1noc2ccc(NC(=O)c3cc4ccccc4nc3N3CCCC(F)(F)CC3)cc12` [Compound 3, N-(3-aminobenzo[d]isoxazol-5-yl)-2-(4,4-difluoroazepan-1-yl)quinoline-3-carboxamide] had an IC50 of under 20 nM. As to `NS(=O)(=O)c1cccc(NC(=O)c2cc3ccncc3nc2N2CCCC(F)(F)CC2)c1` [Compound 15, 2-(4,4-difluoroazepan-1-yl)-N-(3-sulfamoylphenyl)-1,7-naphthyridine-3-carboxamide], the IC50 is under 20 nM. `NS(=O)(=O)c1cccc(NC(=O)c2cc3c(nc2N2CCCC(F)(F)CC2)CCCC3)c1` [Compound 18, 2-(4,4-difluoroazepan-1-yl)-N-(3-sulfamoylphenyl)-5,6,7,8-tetrahydroquinoline-3-carboxamide]: the IC50 was 20 to 100 nM.

`CS(=O)(=O)c1cccc(NC(=O)c2nc3ccccc3nc2N2CCCC(F)(F)CC2)c1` [Compound 6, 3-(4,4-difluoroazepan-1-yl)-N-(3-methanesulfonylphenyl)quinoxaline-2-carboxamide]: the IC50 was under 20 nM. Regarding `NS(=O)(=O)c1cccc(NC(=O)c2nc3ccccc3nc2N2CCCC(F)(F)CC2)c1` [Compound 8, 3-(4,4-difluoroazepan-1-yl)-N-(3-sulfamoylphenyl)quinoxaline-2-carboxamide], the IC50 is 20 to 100 nM.

In the case of `NS(=O)(=O)c1cccc(NC(=O)c2cc3cc(F)ccc3nc2N2CCCC(F)(F)CC2)c1` [Compound 9, 2-(4,4-difluoroazepan-1-yl)-6-fluoro-N-(3-sulfamoylphenyl)quinoline-3-carboxamide], the IC50 lay within 20 to 100 nM. As for `CC1CN(c2nc3ccccc3cc2C(=O)Nc2cccc(S(N)(=O)=O)c2)CCC1(F)F` (stereo not drawn) [Compound 5, 2-(4,4-difluoro-3-methylpiperidin-1-yl)-N-(3-sulfamoylphenyl)quinoline-3-carboxamide], the IC50 is under 20 nM. `NC(=O)c1cccc(NC(=O)c2nc3ccccc3nc2N2CCCC(F)(F)CC2)c1` [Compound 14, N-(3-carbamoylphenyl)-3-(4,4-difluoroazepan-1-yl)quinoxaline-2-carboxamide] had an IC50 of 20 to 100 nM.

`CS(=N)(=O)c1cccc(NC(=O)c2nc3ccccc3nc2N2CCCC(F)(F)CC2)c1` (stereo not drawn) [Compound 7, 3-(4,4-difluoroazepan-1-yl)-N-(3-(S-methylsulfonimidoyl)phenyl)quinoxaline-2-carboxamide] showed an IC50 of 20 to 100 nM.

`COc1ccc2cc(C(=O)Nc3cccc(S(N)(=O)=O)c3)c(N3CCCC(F)(F)CC3)nc2c1` [Compound 16, 2-(4,4-difluoroazepan-1-yl)-7-methoxy-N-(3-sulfamoylphenyl)quinoline-3-carboxamide]: the IC50 was 20 to 100 nM. Molecule `NS(=O)(=O)c1cccc(NC(=O)c2cc3cnccc3nc2N2CCCC(F)(F)CC2)c1` [Compound 20, 2-(4,4-difluoroazepan-1-yl)-N-(3-sulfamoylphenyl)-1,6-naphthyridine-3-carboxamide] showed an IC50 of 20 to 100 nM.

`NS(=O)(=O)c1cccc(NC(=O)c2cc3cc(Cl)ccc3nc2N2CCCC(F)(F)CC2)c1` [Compound 12, 6-chloro-2-(4,4-difluoroazepan-1-yl)-N-(3-sulfamoylphenyl)quinoline-3-carboxamide] returned an IC50 of under 20 nM.

The same test, now with this note: HEK cells transfected with human NaV 1.8; whole-cell patch-clamp; 0.3-1 μM TTX in extracellular solution; room temperature.
Turning to `NS(=O)(=O)c1cccc(NC(=O)c2cc3cccnc3nc2N2CCCC(F)(F)CC2)c1` [Compound 19, 2-(4,4-difluoroazepan-1-yl)-N-(3-sulfamoylphenyl)-1,8-naphthyridine-3-carboxamide], the “NaV1.8 IC50 (nM)” value is on record as “+ (+ indicates an IC50 of greater than 100 nM but less that or equal to 1.5 M)”.

One may read the IC50 as the concentration at which inhibition is half-maximal. High values mean weaker potency in that assay, low ones greater potency in that assay.
